Like-named read-outs stand apart in the source and are kept apart here.
Tests used:
[1] = Stability in human plasma; format: in vitro ADME; settings: for Human Plasma Stability (HP) product / Human Plasma Stability (HP) t1/2: 37° C., TBS pH 7.5
Protocol: (§1) The in vitro metabolism and stability of separated diastereomers were determined in PLCE, MT-2 extract and human plasma. A biological sample listed below, 80 μL, was transferred into a screw-capped centrifuge tube and incubated at 37° C. for 5 min. A solution containing 0.2 mg/mL of the test compound in a suitable buffer, 20 μL, was added to the biological sample and mixed. The reaction mixture, 20 μL, was immediately sampled and mixed with 60 μL of methanol containing 0.015 mg/mL of 2-hydroxymethylnaphthalene as an internal standard for HPLC analysis. The sample was taken as the time-zero sample. Then, at specific time points, the reaction mixture, 20 μL, was sampled and mixed with 60 μl of methanol containing the internal standard. The mixture thus obtained was centrifuged at 15,000 G for 5 min and the supernatant was analyzed with HPLC under the conditions described below.
(§2) The biological samples evaluated are as follows, • (1) PLCE (porcine liver carboxyesterase from Sigma, 160 u/mg protein, 21 mg protein/mL) diluted 20 fold with PBS (phosphated-buffered saline). • (2) MT-2 cell extract was prepared from MT-2 cells according to the published procedure [A. Pompon, I. Lefebvre, J.-L. Imbach, S. Kahn, and D. Farquhar, “Antiviral Chemistry & Chemotherapy”, 5:91-98 (1994)] except for using HEPES buffer described below as the medium. • (3) Human plasma (pooled normal human plasma from George King Biomedical Systems, Inc.)
In the study for human plasma, the test compound was dissolved in TBS. TBS (tris-buffered saline, Sigma) contains 0.05 M Tris, 0.0027 M potassium chloride, and 0.138 M sodium chloride. pH 7.5 at 37° C.
(§3) The HPLC analysis was carried out under the following conditions.

[2] = Stability / hydrolysis in MT-2 cell extract; format: in vitro ADME; settings: for MT-2 extract hydrolysis product: 37° C., HEPES buffer pH 7.4
Protocol: as §1, §2
In the study for MT-2 cell extracts, the test compound was dissolved in HEPES buffer. HEPES buffer contains 0.010 M HEPES, 0.05 M potassium chloride, 0.005 M magnesium chloride, and 0.005 M dl-dithiothreitol. pH 7.4 at 37° C.
as §3

MT-2 cells = experiment: Cytotoxicity in MT-2 cells
[3] = PMPA metabolites in plasma, PBMCs and RBCs after 1 h incubation in human blood
Protocol: After 1 hour, plasma, red blood cells (RBCs) and peripheral blood mononuclear cells (PBMCs) were isolated and analyzed by HPLC with radiometric detection.
Met. Lower case “p” designates phosphorylation.

[4] = Excretion and tissue distribution of radiolabelled GS-7340 in dogs; settings: dogs, oral 10 mg-eq. PMPA/kg
Protocol: Plasma and peripheral blood mononuclear cells (PBMCs) were obtained over the 24-hr period. Urine and feces were cage collected over 24 hr. At 24 h after the dose, the animals were sacrificed and tissues removed for analysis. Total radioactivity in tissues was determined by oxidation and liquid scintillation counting.

HIV-1 = experiment: In vitro anti-HIV-1 activity in MT-2 cells; format: cell-based; settings: Table 5 (selected IC50 data from Table 4); read-out: HIV IC50
[5] = test system: PLCE (porcine liver carboxyesterase); experiment: PLCE hydrolysis; format: in vitro ADME; settings: 37° C., PBS pH 7.4
Protocol: as §1, §2
In the study for PLCE, the test compound was dissolved in PBS. PBS (phosphate-buffered saline, Sigma) contains 0.01 M phosphate, 0.0027 M potassium chloride, and 0.137 M sodium chloride. pH 7.4 at 37° C.
as §3

## CC(C)OC(=O)[C@H](C)N[P@](=O)(CO[C@H](C)Cn1cnc2c(N)ncnc21)Oc1ccccc1 (single isomer, unassigned) [GS-7340]
[1]; human plasma
  Stability T ½ Human Plasma: 1.5 h
[2]; MT-2 cell extract
  Stability T ½ MT-2 Cell Extract: 0.472 h
MT-2 cells; Table 4
  CC50: ≥ 40000 nM
MT-2 cells; read-out: Cytotoxicity CC50, MT-2 cells, Table 1
  CC50: > 40000 nM
[3]; Plasma/FP
  Metabolites (% of Total Peak Area): GS 7340 (intact): 84%
[3]; Plasma/FP, 60 μg-eq
  Total C-14 Recovered: 43.0 μg-eq
[3]; RBC/FP
  Metabolites (% of Total Peak Area): GS 7340 (intact): 57%
[4]; Abdominal fat
  % Dose: 0.00%
  Conc.: 0.90 ug-eq/g
[4]; Adrenal Gland
  % Dose: 0.00%
[4]; Axillary Lymph Nodes
  % Dose: 0.01%
[4]; Bile
  % Dose: 0.22%
[4]; Bone Marrow
  % Dose: 0.00%
[4]; Brain
  % Dose: 0.00%
  Conc.: <LOD
[4]; Cerebrospinal Fluid
  % Dose: 0.00%
  Conc.: 0.00 ug-eq/g
[4]; Duodenum
  % Dose: 0.44%
[4]; Eye (L + R)
  % Dose: 0.00%
  Conc.: 0.23 ug-eq/g
[4]; Feces
  % Dose: 0.19%
[4]; Femoral Bone
  % Dose: 0.00%
  Conc.: 0.28 ug-eq/g
[4]; Gall bladder
  % Dose: 0.04%
[4]; Heart
  % Dose: 0.15%
[4]; Ileum
  % Dose: 0.16%
[4]; Iliac Lymph Nodes
  % Dose: 0.01%
[4]; Inguinal Lymph Nodes
  % Dose: 0.00%
[4]; Jejunum
  % Dose: 0.79%
[4]; Lungs
  % Dose: 0.34%
[4]; Mesenteric Lymph Nodes
  % Dose: 0.04%
[4]; Pancreas
  % Dose: 0.01%
[4]; Pituitary Gland
  % Dose: 0.00%
  Conc.: 1.80 ug-eq/g
[4]; Prostate
  % Dose: 0.00%
[4]; Salivary Gland (L + R)
  % Dose: 0.03%
[4]; Skeletal Muscle
  % Dose: 0.01%
[4]; Skin
  % Dose: 0.00%
  Conc.: 0.95 ug-eq/g
[4]; Spinal Cord
  % Dose: 0.00%
  Conc.: 0.04 ug-eq/g
[4]; Spleen
  % Dose: 0.17%
[4]; Stomach
  % Dose: 0.26%
[4]; Testes (L + R)
  % Dose: 0.02%
[4]; Thyroid Gland
  % Dose: 0.00%
[4]; Whole Blood
  % Dose: 0.16%
  Conc.: 0.20 ug-eq/g

## CCOC(=O)C(C)NP(=O)(COC(C)Cn1cnc2c(N)ncnc21)Oc1ccccc1 (single isomer, unassigned) [compound 1]
[1]
  Human Plasma Stability (HP) product: Met. Y
  Human Plasma Stability (HP) t1/2: 2.47 h
[2]
  MT-2 extract hydrolysis product: Met. X & PMPA
HIV-1
  IC50: 5 nM
[5]
  PLCE hydrolysis product: Met. X & PMPA

## CCOC(=O)C(C)NP(=O)(COC(C)Cn1cnc2c(N)ncnc21)Oc1ccccc1 (single isomer, unassigned) [compound 2]
[1]
  Human Plasma Stability (HP) product: Met. Y
  Human Plasma Stability (HP) t1/2: 8.25 h
[2]
  MT-2 extract hydrolysis product: Met. X & PMPA
HIV-1
  IC50: 50 nM
[5]
  PLCE hydrolysis product: Met. X & PMPA

## CCOC(=O)C(CC)NP(=O)(COC(C)Cn1cnc2c(N)ncnc21)Oc1ccccc1 (single isomer, unassigned) [compound 6]
[1]
  Human Plasma Stability (HP) product: Met. Y
  Human Plasma Stability (HP) t1/2: 4.28 h
HIV-1
  IC50: 30 nM
[5]
  PLCE hydrolysis product: Met. X

From US7803788B2, “Prodrugs of phosphonate nucoleotide analogues” (Gilead Sciences, Inc., priority 2000, dated 2010)
